Assay results: US6609014B1, “Use of PDT to inhibit intimal hyperplasia” (QLT Inc., priority 1999, dated 2003)

Legend:
[1] = system: elastic lamina of the vein; test: Elastin (Verhoeff's elastic) staining of AV fistula veins after PDT; type: in vivo, Domestic swine; conditions: 48 h and 1 month samples
Procedure: Measurements and observations were made by morphometric analysis of cross-sections of fistulae stained with Verhoeff's elastic to assess the integrity of the vessel wall and also clearly demarcate the internal elastic lamina (IEL) for the measurement of IH. Areas within the lumen and those circumscribed by the internal elastic lamina (IEL) and the external elastic lamina (EEL) were measured directly using the Optimas (Optimas Corporation, Bothell, Wash., USA) program. The areas of the intima and the media were calculated by subtraction: intimal area equals the […], and medial area equals EEL area minus IEL area.

[2] = system: endothelial lining of the vein lumen; test: von Willebrand factor immunostaining of AV fistula veins 48 hours after PDT; type: in vivo, Domestic swine; conditions: low-dose PDT
Text: In Example 4, the cell content of the vein wall was also examined using immunohistochemical techniques to detect SMCs (mouse anti-human ax-smooth muscle actin, clone 1A4 (Dako, Mississauga, Canada)), macrophages (mouse monoclonal anti-human monocyte/macrophage, clone MAC 387 (Serotec Inc.), T cells (Rabbit anti-human CD3 with Neo marker), and endothelial cells (rabbit polyclonal anti-human von Willebrand Factor (Dako, Mississauga, Canada)). SMCs were counted using the Optimas image analysis program and macrophages were counted manually using Image Pro Plus 3 (Media Cybernetics, Silver Spring, Md., USA).
For the purposes of determining the early cellular effects of PDT on the vein, bilateral AV fistulae were created in six pigs and treated sides were given 0.15 mg BPD-MA (0.15 mg/2 mL) and 40 minutes OR light. After 48 hours these pigs were sacrificed and the fistulae were recovered and processed for histological evaluation. This is not enough time for IH to have developed, but the cellular activation which leads to IH may be detectable. […] Immunocytochemistry for the proliferating cell nuclear antigen (PCNA) was used to assess cell proliferation in the tissue (Table 3).
Immunocytochemical staining for von Willebrand factor was performed to characterize the effects of PDT on the endothelial lining of the vein lumen. […]

benzoporphyrin derivative monoacid ring A [BPD-MA]
Damage to the elastic lamina due to PDT [1]: no sign of damage to the elastic lamina
Damage to endothelial cell lining of treated veins [2]: did not appear to damage the endothelial cell lining
